Tests used:
[1] = tested on: antibody titer to rh-alpha-glucosidase (rhGAA); test: ELISA antibody titer to rhGAA in canines on weekly rhGAA infusions; assay type: in vivo, canine
Method: Enzyme Infusions. […] Infusions were performed with 0.056 mg/kg/week recombinant human alpha glucosidase in a 50 mL infusion of saline and 10 mM NaPO4, pH 5.8. […] Animals were monitored for anaphylactic reaction.

fibroblasts = test: Half maximal uptake (Kuptake) of alpha-glucosidase into fibroblasts; assay type: cell-based
[2] = control canine ST, no drug treatment

Substance: rhGAA: recombinant human alpha-glucosidase, lysosomal enzyme being developed to treat Pompe disease
- Antibody levels to rhGAA at the highest point ([1]; 0.056 mg/kg/week iv rhGAA, weeks 1-12): > 150 OD Units
- titer by week 4 [1, 2]: more than 100 OD units per microliter of serum
- titer subsequently (after week 4) [1, 2]: 100-200 units per microliter of serum
- higher titer of control dog by week 5 ([1]; control vs treated dog): 100 fold
- Kuptake (enzyme concentration at half maximal uptake) (fibroblasts): about 1 nanomolar

— patent publication US7883707B2, “Induction of antigen specific immunnologic tolerance” (priority 2002, dated 2011)
